Data reported in patent US7135581B2, “Antiangiogenic agents” (Entremed, Inc., priority 2000, dated 2006).
Where two headings read alike, the source gives them in different places.

Legend:
[1] = system: MDA-MB-231 human breast carcinoma cells; assay: MDA-MB-231 in vitro cellular proliferation inhibition (BrdU); format: cell-based
Description: MDA-MB-231 human breast carcinoma cells were grown in DMEM containing 10% FCS (Hyclone Laboratories, Logan Utah) and supplemented with 2 mM L-Glutamine, 100 units/ml penicillin, 100 μg/ml streptomycin (Irvine Scientific, Santa Anna, Calif.).
MDA-MB-231 cells were plated at 5000 cells/ml in 96-well plates. After allowing the cells to attach overnight, the appropriate fresh media were applied containing differing concentrations of 2-ME2 or derivatives thereof, as described below. Drug was dissolved in DMSO (Sigma, St. Louis, Mo.) and added to the wells in a volume of 200 μl. Cells were incubated for two days at 37° C.; at 32 h BrdU was added. BrdU cell proliferation assay (a nucleotide analogue that is incorporated into DNA) was performed as described by the manufacturer (Roche). Each condition was prepared in triplicate and the experiments were carried out a minimum of two times. Results presented are means +/− SE.

[2] = system: HUVEC and MDA-MB-231 cells; assay: in vitro antiproliferative screening, endothelial versus tumor cells; format: cell-based, human; conditions: for antiproliferative activity in vitro (in words): cell line not specified; for difference between inhibition of tumor cells and of endothelial cell proliferation (selectivity): MDA-MB-231 versus HUVEC
Source text: Compounds with no chain or with variable methylene chain lengths (1–4) were synthesized by replacing hydroxyl group at position-17 of D-ring of 2ME2 to block estrone formation or glucuronation. Similarly several analogs of 17-deoxyestrone with modification at position-2 were synthesized to block the both glucuronation and hydrolysis of the methoxy group to the hydroxyl. For these analogs data will be presented on the synthesis and preliminary in vitro screening in human umbilical vein endothelial cells (HUVEC) and breast cancer tumor MDA-MB-231 cells for antiproliferative activity, and in MCF-7 tumor cancer cells for estrogenic activity.
(§1) In order to assess the biological activity of modifications at position 16, the anti-proliferative activity of these analogs was evaluated on human umbilical vein endothelial cells (HUVEC) and breast carcinoma cell line, MDA-MB-231 as models for the anti-angiogenic and anti-tumor activity, respectively.

[3] = system: vascular endothelial cell proliferation; conditions: cited from earlier work
[4] = system: HUVEC cells; assay: HUVEC in vitro cellular proliferation inhibition (BrdU, bFGF); format: cell-based, human
Description: HUVEC cells were grown in EGM (Clonetics).
HUVEC cells were plated at 5000 cells/ml in 96-well plates. After allowing the cells to attach overnight, the cells were washed with PBS and incubated in the absence of growth factor for 24 h (EBM, 2% FCS, Clonetics). Cells were treated with increasing concentrations of drug in EBM containing 2% FCS and 10 ng/ml bFGF for 48 h at 37° C. Drug preparation, volumes added and BrdU proliferation assay were performed as indicated above.
as §1, with “2-Methoxyestradiol is a potent anti-angiogenic and anti-tumor agent. In” for “In”

[5] = system: MCF7 cells; assay: MCF7 estrogen-dependent proliferation assay (cell counting); format: cell-based; conditions: for MCF7 Fold stimulation: estrogen-dependent proliferation
Description: MCF7 cells, an estrogen dependent breast carcinoma cell line, were maintained in DMEM/F12 (1:1) containing 10% (v/v) fetal bovine serum (Hyclone Laboratories, Logan, Utah) and 1×antibiotic-antimytotic. MCF7 cells were used between passage 60 and passage 90. For MCF7 estrogen-dependent proliferation assay the cells were seeded in complete media at 20–30,000 cells/well in a 24 well plate. After allowing the cells to adhere overnight the seeding density was determined by cell counts. Cells were washed with PBS (37° C.) and starved by placing them in IMEM-phenol red free media containing 2% charcoal-dextran fetal bovine-stripped serum (Georgetown University) and 1×antibiotic-antimitotic. After 3 days of starvation, cells were treated with or without increasing concentrations of compounds, replacing the media every 2–3 days and counted after 8 or 10 days of treatment. Proliferation was measured by cell counting using a Coulter Z1 cell counter (Coulter Corporation, Hialeah, Fla.). Each condition was done in triplicate.

[6] = system: chick embryo chorioallantoic membrane; assay: chick embryo chorioallantoic membrane (CAM) assay; format: in vivo; conditions: 100 μg disk, after 48 hours
Description: Anti-proliferative activity is evaluated in situ by testing the ability of an improved estradiol derivative to inhibit the proliferation of new blood vessel cells (angiogenesis). A suitable assay is the chick embryo chorioallantoic membrane (CAM) assay described by Crum et al. Science 230:1375 (1985). See also, U.S. Pat. No. 5,001,116, hereby incorporated by reference, which describes the CAM assay. Briefly, fertilized chick embryos are removed from their shell on day 3 or 4, and a methylcellulose disc containing the drug is implanted on the chorioallantoic membrane. The embryos are examined 48 hours later and, if a clear avascular zone appears around the methylcellulose disc, the diameter of that zone is measured.

[7] = Table 4, dehydrogenated/substituted 2ME2 derivatives, read-out: MDA-MB-231 (IC50 μM)
[8] = Table 4, dehydrogenated/substituted 2ME2 derivatives
[9] = Homo sapiens, MDA-MB-231, Table 2, 2 substituted E2 derivatives, read-out: MDA-MB-231 (IC50 μM)
[10] = Homo sapiens, HUVEC, Table 2, 2 substituted E2 derivatives

Compound: COc1cc2c(cc1O)CC[C@@H]1[C@@H]2CC[C@]2(C)[C@@H](O)[C@@H](C)C[C@@H]12 [Table 3, Entry 3, 2-methoxy-16β-methylestra-1,3,5(10)-triene-3,17β-diol]
- drop in activity in MDA-MB-231 compared to 2-methoxyestradiol [1]: about 5 fold

Compound: COc1cc2c(cc1O)CC[C@@H]1[C@@H]2CC[C@]2(C)CCC[C@@H]12 [Table 1, Entry 3, 2-methoxyestra-1,3,5(10)-triene-3-ol]
- antiproliferative activity in vitro (in words) ([2]; listed as 2-Methoxy-17-deoxyestrone): equal or better antiproliferative activity than 2ME2
- antiproliferative activity in vitro (in words) ([2]; listed as dehydroxy derivative): in vitro profile analogous to 2-methoxyestradiol

Compound: CO[C@@H]1[C@H](OC(=O)NC(=O)CCl)CC[C@]2(CO2)[C@H]1[C@@]1(C)O[C@@H]1CC=C(C)C [AGM-1470]
- half-maximal inhibition of vascular endothelial cell proliferation at lower concentration than tumor cell proliferation [3]: 4 logs

Compound: COc1cc2c(cc1O)CC[C@@H]1[C@@H]2CC[C@]2(C)[C@@H](C)CC[C@@H]12 [Table 1, Entry 8, 2-methoxy-17β-methylestra-1,3,5(10)-triene-3-ol]
- antiproliferative activity in vitro (in words) [2]: equal or better antiproliferative activity than 2ME2

Compound: 16β-(hydroxymethyl)estra-1,3,5(10)-triene-3,17β-diol [Table 3, Entry 6]
- difference between inhibition of tumor cells and of endothelial cell proliferation (selectivity) [2]: 10 fold

Compound: COc1cc2c(cc1O)CC[C@@H]1[C@@H]2CC[C@]2(C)[C@@H](O)CC[C@@H]12 [2-Methoxyestradiol, reference compound]
- IC50 ([1]; Table 1, 17 substituted 2ME2 derivatives, means +/− SE, read-out: MDA-MB-231 (IC50 μM)): 0.5 ± 0.05 µM
- IC50 ([1]; Table 2, 2 substituted E2 derivatives, read-out: MDA-MB-231 (IC50 μM)): 0.5 µM
- IC50 ([1]; Table 3, 16 substituted 2ME2 derivatives, read-out: MDA-MB-231 (IC50 μM)): 0.5 ± 0.05 µM
- IC50 [1, 7]: 0.5 ± 0.05 µM
- IC50 ([4]; Table 1, 17 substituted 2ME2 derivatives): 0.66 ± 0.02 µM
- IC50 ([4]; Table 2, 2 substituted E2 derivatives): 0.66 µM
- IC50 ([4]; Table 3, 16 substituted 2ME2 derivatives): 0.66 ± 0.02 µM
- IC50 [4, 8]: 0.66 ± 0.02 µM
- estrogenic activity, proliferation in estrogen dependant MCF-7 cells (in words) [5]: not estrogenic over a wide range of concentrations
- MCF7 Fold stimulation ([5]; Table 1): 1.75
- MCF7 Fold stimulation ([5]; Table 2): 1.75
- MCF7 Fold stimulation ([5]; Table 3): 1.75
- inhibition of cell mitosis and growth of new blood vessels [6]: inhibit cell mitosis and the growth of new blood vessels

Compound: C[C@]12CC[C@@H]3c4cc(N=[N+]=[N-])c(O)cc4CC[C@H]3[C@@H]1CC[C@@H]2O [Table 2, Entry 17, 2-Azidoestra1,3,5(10)-triene-3,17β-diol]
- IC50 ([1]; Homo sapiens, MDA-MB-231, read-out: MDA-MB-231 (IC50 μM)): 13.3 µM
- antiproliferative activity in vitro (in words) [2]: retained considerable antiproliferative activity

Compound: CCC[C@@H]1C[C@H]2[C@@H]3CCc4cc(O)c(OC)cc4[C@H]3CC[C@]2(C)[C@H]1O [Table 3, Entry 7, 2-methoxy-16α-propaneestra-1,3,5(10)-triene-3,17β-diol]
- antiproliferative activity in HUVEC / endothelial cells (in words) [4]: good activity
- difference between inhibition of tumor cells and of endothelial cell proliferation (selectivity) [2]: more than ten-fold less active

Compound: C[C@@]12CCC[C@H]1[C@@H]1CCc3cc(O)ccc3[C@H]1CC2 [Table 2, Entry 19, estra-1,3,5(10)-triene-3-ol]
- IC50 [1, 9]: 33.9 µM
- IC50 [4, 10]: 8.66 µM

Compound: COc1cc2c(cc1O)CC[C@@H]1[C@@H]2CC[C@]2(C)[C@@H](O)[C@H](C)C[C@@H]12 [Table 3, Entry 2, 2-methoxy-16α-methylestra-1,3,5(10)-triene-3,17β-diol]
- activity in MDA-MB-231 compared to 2-methoxyestradiol (in words) [1]: better activity than 2-methoxyestradiol

Compound: CCC1C[C@H]2[C@@H]3CCc4cc(O)c(OC)cc4[C@H]3CC[C@]2(C)[C@H]1O (stereo partly drawn) [Table 3, Entry 4, 2-methoxy-16-ethylestra-1,3,5,(10)-triene-3,17β-diol]
- drop in activity in MDA-MB-231 compared to 2-methoxyestradiol [1]: ~3 fold
- inhibition of HUVEC cell proliferation compared to 2-methoxyestradiol (in words) [4]: about equipotent to 2-methoxyestradiol

Compound: CC(=O)c1cc2c(cc1O)CC[C@@H]1[C@@H]2CC[C@]2(C)[C@@H](O)CC[C@@H]12 [Table 2, Entry 2, 2-acetylestra-1,3,5(10)-triene-3,17β-diol]
- activity in breast tumor MDA-MB-231 cells (in words) [1]: good activity
- antiproliferative activity in HUVEC / endothelial cells (in words) [4]: poor activity

Compound: C[C@]12CC[C@@H]3c4cc(C=O)c(O)cc4CC[C@H]3[C@@H]1CC[C@@H]2O [Table 2, Entry 3, 2-formylestra-1,3,5(10)-triene-3,17β-diol]
- activity in breast tumor MDA-MB-231 cells (in words) [1]: poor activity

Compound: CC[C@H]1CC[C@H]2[C@@H]3CCc4cc(O)c(OC)cc4[C@H]3CC[C@]12C [Table 1, Entry 13, 2-methoxy-17β-ethylestra-1,3,5(10)-triene-3-ol]
- antiproliferative activity in vitro (in words) [2]: equal or better antiproliferative activity than 2ME2

Compound: COc1cc2c(cc1O)CC[C@@H]1C2=CC[C@]2(C)[C@@H](O)CC[C@@H]12 [2-methoxy-estra-1,3,5(10)9(11)-tetraene-3,17β-diol]
- IC50 [1, 7]: 0.45 µM
- IC50 [4, 8]: 0.25 µM

Compound: CCOc1cc2c(cc1O)CC[C@@H]1[C@@H]2CC[C@]2(C)[C@@H](O)CC[C@@H]12 [Table 2, Entry 18, 2-ethoxyestra-1,3,5(10)-triene3,17β-diol]
- IC50 [1, 9]: 0.179 µM
- IC50 [4, 10]: 0.06 µM

Compound: C[C@]12CC[C@@H]3c4cc(CO)c(O)cc4CC[C@H]3[C@@H]1CC[C@@H]2O [Table 2, Entry 4, 2-(hydroxymethyl)estra-1,3,5(10)-triene-3,17β-diol]
- activity in breast tumor MDA-MB-231 cells (in words) [1]: poor activity

Compound: COc1cc2c(cc1OC(C)=O)CCC1C2CC[C@@]2(C)C1CC[C@@H]2OC(C)=O (stereo partly drawn) [Entry 6]
- IC50 ([1]; Homo sapiens, MDA-MB-231, Table 1, 17 substituted 2ME2 derivatives, means +/− SE, read-out: MDA-MB-231 (IC50 μM)): 0.59 ± 0.15 µM
- IC50 ([4]; Homo sapiens, HUVEC, Table 1, 17 substituted 2ME2 derivatives): 3.6 ± 2 µM
